Experimental data taken from ChEMBL document CHEMBL1158198, “Indole Alkaloids of Haplophyton crooksii 1” (J Nat Prod, 1996).

Target: Acetylcholinesterase (Electrophorus electricus, UniProt O42275)
Experiment: Inhibition of electric eel AChE

Acetylcholinesterase, sequence (O42275 whole entry): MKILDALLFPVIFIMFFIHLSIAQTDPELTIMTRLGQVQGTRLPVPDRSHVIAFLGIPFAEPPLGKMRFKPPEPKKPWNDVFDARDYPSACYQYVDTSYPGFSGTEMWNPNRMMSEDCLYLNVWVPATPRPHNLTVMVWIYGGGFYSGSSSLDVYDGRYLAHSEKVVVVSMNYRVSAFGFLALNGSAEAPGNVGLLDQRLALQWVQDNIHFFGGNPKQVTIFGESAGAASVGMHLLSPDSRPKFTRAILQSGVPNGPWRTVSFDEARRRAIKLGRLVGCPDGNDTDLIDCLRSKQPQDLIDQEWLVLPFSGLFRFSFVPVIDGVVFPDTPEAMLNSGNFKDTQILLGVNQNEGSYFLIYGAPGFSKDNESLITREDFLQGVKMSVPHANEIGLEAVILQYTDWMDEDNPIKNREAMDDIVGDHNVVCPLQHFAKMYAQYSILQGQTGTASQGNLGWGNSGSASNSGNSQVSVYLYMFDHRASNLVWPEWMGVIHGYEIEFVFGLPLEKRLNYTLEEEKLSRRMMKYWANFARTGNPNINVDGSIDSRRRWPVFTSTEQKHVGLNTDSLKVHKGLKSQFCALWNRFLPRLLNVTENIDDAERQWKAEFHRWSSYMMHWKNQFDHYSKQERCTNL

Row | Structure (SMILES) | IC50 [µM]
1 | C/C=C1/CN2CC[C@]34C(=C(C(=O)OC)[C@H]1C[C@H]23)Nc1ccccc14 [AKUAMMICINE] | 221
2 | COC(=O)[C@@H]1[C@H]2C[C@H]3c4[nH]c5ccccc5c4CCN3C[C@@H]2CC[C@@H]1O [YOHIMBINE] | 431
3 | CCC(=O)N1c2c(O)cccc2[C@]23CCN4CCC[C@@]5(CC[C@@H]12)CC(=O)O[C@@]453 [CIMICINE] | 241
4 | CCc1[nH]c2ccccc2c1CCN1CCCC(CC)C1 (configuration not stated) [DECARBOMETHOXYTETRAHYDROSECODINE] | 203
5 | CC[C@H]1[C@@H]2CCN3CC[C@@]4(C(=C2C(=O)OC)Nc2ccccc24)[C@@H]13 [TUBOTAIWINE] | 108
6 | COc1c([C@@]23CCN(C)[C@]4(CCC(=O)N4c4c(O)cccc42)C3=O)cc2c(c1OC)N(C)[C@@H]1C=C[C@@]34CCCN5CC[C@@]21[C@]53OC(=O)C4 [HAPLOPHYTINE] | 225
7 | CCC(=O)N1c2c(ccc(OC)c2O)[C@]23CCN4CCC[C@@]5(CC[C@@H]12)CC(=O)O[C@@]453 [CIMICIDINE] | 197
8 | C/C=C1/CN2CC[C@@]34c5ccccc5N(C)[C@H]5O[C@]3(O)[C@@H]2C[C@@H]1[C@]54C(=O)OC [LANCEOMAGINE] | 383
9 | CC[C@@H]1CCCN(CCc2c(C(C)=O)[nH]c3ccccc23)C1 [CROOKSIDINE] | 175
10 | C/C=C1\CN2[C@H]3C[C@H]1C(C(=O)OC)[C@@H]2Cc1c3n(C)c2ccc(OC)cc12 (some centres not stated) | 135
11 | C/C=C1/CN2[C@H]3Cc4c([nH]c5ccccc45)[C@@H]2C[C@@H]1[C@]3(CO)C(=O)OC [AKUAMMIDINE] | 188
12 | C/C=C1/CN2CC[C@]34c5cccc(OC)c5N[C@H]3C[C@H]1C[C@H]24 | 57
